Literature values as cited in article PMC11215356 (Haematologica, 2024).

Assays:
CLL/SLL = CLL/SLL patients, range over previous Syk inhibitor studies
FL = FL patients
[1] = tested on: patients treated with fostamatinib

Row | Compound | ORR (CLL/SLL) | mPFS (CLL/SLL) | mPFS (FL) | diarrhea as a DLT event [1] | diarrhea as one of the most common TRAE [1]
1 | CCS(=O)(=O)N1CCN(c2ccc(Nc3ncc(C(N)=O)c(NC4CC4)n3)cc2)CC1 [cerdulatinib] | 33-61% | 5.6-13.8 months |  |  | 
2 | c1cn2cc(-c3ccc4cn[nH]c4c3)nc(Nc3ccc(N4CCOCC4)cc3)c2n1 [entospletinib] | 33-61% | 5.6-13.8 months | 4.6 months |  | 
3 | COc1cc(Nc2ncc(F)c(Nc3ccc4c(n3)N(COP(=O)(O)O)C(=O)C(C)(C)O4)n2)cc(OC)c1OC [fostamatinib] | 33-61% | 5.6-13.8 months | 5.7 months | 21% | 41%
